pIC50: −log10 of the molar value. Where two headings read alike, the source gives them in different places.
Legend:
[1] = target: HDAC7 (Homo sapiens (Human), UniProt Q8WUI4); assay: HDAC7 enzymatic assay; assay type: biochemical; details: selectivity profile; read-out: HDAC Enzyme IC50, HDAC 7
Procedure: (§1) All enzymatic reactions were conducted in duplicate at room temperature for 17 hours in a 50 μl mixture containing HDAC assay buffer (50 mM Tris-HCl, pH 7.4, 137 mM NaCl, 2.7 mM KCl, 0.05% Tween 20, 5 μg BSA), an HDAC substrate, an HDAC enzyme, and a test compound. Compound dilution was prepared ten-fold higher than the final concentration of the compounds with 10% DMSO in HDAC assay buffer and 5 μl of the dilution was added to a 50 μl reaction so that the final concentration of DMSO is 1% in all of reactions. After enzymatic reactions, 50 μl of HDAC Developer was added to each well and the plate was incubated at room temperature for an additional 20 minutes. Fluorescence intensity was measured at an excitation of 360 nm and an emission of 460 nm using a Tecan Infinite M1000 or Biotek Synergy microplate reader.
(§2) The fluorescent intensity data were analyzed using the computer software, Graphpad Prism. In the absence of the compound, the fluorescent intensity (Ft) in each data set was defined as 100% activity. In the absence of HDAC, the fluorescent intensity (Fb) in each data set was defined as 0% activity. The percent activity in the presence of each compound was calculated according to the following equation: % activity=(F−Fb)/(Ft−Fb), where F=the fluorescent intensity in the presence of the compound.
(§3) The values of % activity versus a series of compound concentrations were then plotted using non-linear regression analysis of Sigmoidal dose-response curve generated with the equation Y=B+(T−B)/1+10((Log EC50−X)×Hill Slope), where Y=percent activity, B=minimum percent activity, T=maximum percent activity, X=logarithm of compound and Hill Slope=slope factor or Hill coefficient. The IC50 value was determined by the concentration causing a half-maximal percent activity.
(§4) HDAC1 enzymatic assays contained 0.5 ng HDAC1 and 10 uM of HDAC substrate. HDAC2 enzymatic assays contained 0.5 ng HDAC2 and 10 uM of HDAC substrate. HDAC3 enzymatic assays contained 0.4 ng HDAC3/NCOR2 and 10 uM of HDAC substrate. HDAC4 enzymatic assays contained 0.02 ng HDAC4 and 2 uM of HDAC substrate. HDAC5 enzymatic assays contained 0.5 ng HDAC5 and 2 uM of HDAC substrate. HDAC6 enzymatic assays contained 2 ng HDAC6 and 10 uM of HDAC substrate. HDAC7 enzymatic assays contained 0.05 ng HDAC7 and 2 uM of HDAC substrate. HDAC8 enzymatic assays contained 5 ng HDAC8 and 2 uM of HDAC substrate. HDAC9 enzymatic assays contained 1 ng HDAC9 and 2 uM of HDAC substrate. HDAC10 enzymatic assays contained 75 ng HDAC10 and 10 uM of HDAC substrate. HDAC11 enzymatic assays contained 5 ng HDAC11 and 2 uM of HDAC substrate.

[2] = target: HDAC2 (Homo sapiens (Human), UniProt Q92769); assay: HDAC2 enzymatic assay; assay type: biochemical; details: selectivity profile; read-out: HDAC Enzyme IC50, HDAC 2
Procedure: as §1, §2, §3, §4

[3] = target: HDAC10 (Homo sapiens (Human), UniProt Q969S8); assay: HDAC10 enzymatic assay; assay type: biochemical; details: selectivity profile; read-out: HDAC Enzyme IC50, HDAC 10
Procedure: as §1, §2, §3, §4

[4] = target: HDAC4 (Homo sapiens (Human), UniProt P56524); assay: HDAC4 enzymatic assay; assay type: biochemical; details: selectivity profile; read-out: HDAC Enzyme IC50, HDAC 4
Procedure: as §1, §2, §3, §4

[5] = target: HDAC3/NCOR2 (Homo sapiens (Human), UniProt O15379); assay: HDAC3 enzymatic assay; assay type: biochemical; details: selectivity profile; read-out: HDAC Enzyme IC50, HDAC 3
Procedure: as §1, §2, §3, §4

[6] = target: HDAC11 (Homo sapiens (Human), UniProt Q96DB2); assay: HDAC11 enzymatic assay; assay type: biochemical; details: selectivity profile; read-out: HDAC Enzyme IC50, HDAC 11
Procedure: as §1, §2, §3, §4

[7] = target: HDAC1 (Homo sapiens (Human), UniProt Q13547); assay: HDAC1 enzymatic assay; assay type: biochemical
Procedure, shortened: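 Compound inhibition of human HDAC1 (0.5 ng enzyme, 10 uM substrate) was assessed by fluorescence after developer treatment, excitation 360 nm and emission 460 nm. Percent activity was normalized to no-compound (100%) and no-enzyme (0%) controls, plotted against concentration, and fitted to a sigmoidal dose-response curve in Graphpad Prism to obtain IC50 at half-maximal activity.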

[8] = target: HDAC5 (Homo sapiens (Human), UniProt Q9UQL6); assay: HDAC5 enzymatic assay; assay type: biochemical; details: selectivity profile; read-out: HDAC Enzyme IC50, HDAC 5
Procedure: as §1, §2, §3, §4

[9] = Mouse Pharmacokinetics, oral single dose; assay type: in vivo, male Swiss Albino mice; details: male, Swiss Albino, plasma, 5 mg/kg, formulation by footnote: a 20% CremEL in H20, b 1% CMC in water, c 2% DMSO, 0.2% Tween80, 97.8% of 1% CMC
Procedure: Example 187: Mouse Pharmacokinetics
A dose of 5 mg/kg in an appropriate formulation was administered by oral gavage to fasted male Swiss Albino mice (n=3), and the plasma was collected at 0, 0.25, 0.5, 1, 2, 4, 8, and 24 h. Plasma levels were measured by HPLC/MS/MS methods and the pharmacokinetic parameters were determined for individual animals from plasma concentration-time data using noncompartmental model 200-202 in Phoenix WinNonlin 6.3.

[10] = target: HDAC6 (Homo sapiens (Human), UniProt Q9UBN7); assay: HDAC6 enzymatic assay; assay type: biochemical
Procedure, shortened: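 Following a 17 hour room-temperature incubation of 2 ng HDAC6 with 10 uM substrate and compound, 50 μl developer was added for another 20 minutes, and fluorescence (excitation 360 nm, emission 460 nm) was recorded. Activity was normalized to no-compound (100%) and no-enzyme (0%) wells, and IC50 came from sigmoidal dose-response fitting in Graphpad Prism.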

[11] = target: HDAC8 (Homo sapiens (Human), UniProt Q9BY41); assay: HDAC8 enzymatic assay; assay type: biochemical; details: selectivity profile; read-out: HDAC Enzyme IC50, HDAC 8
Procedure: as §1, §2, §3, §4

[12] = target: HDAC9 (Homo sapiens (Human), UniProt Q9UKV0); assay: HDAC9 enzymatic assay; assay type: biochemical; details: selectivity profile; read-out: HDAC Enzyme IC50, HDAC 9
Procedure: as §1, §2, §3, §4

Sequence of HDAC1 (Q13547 whole entry): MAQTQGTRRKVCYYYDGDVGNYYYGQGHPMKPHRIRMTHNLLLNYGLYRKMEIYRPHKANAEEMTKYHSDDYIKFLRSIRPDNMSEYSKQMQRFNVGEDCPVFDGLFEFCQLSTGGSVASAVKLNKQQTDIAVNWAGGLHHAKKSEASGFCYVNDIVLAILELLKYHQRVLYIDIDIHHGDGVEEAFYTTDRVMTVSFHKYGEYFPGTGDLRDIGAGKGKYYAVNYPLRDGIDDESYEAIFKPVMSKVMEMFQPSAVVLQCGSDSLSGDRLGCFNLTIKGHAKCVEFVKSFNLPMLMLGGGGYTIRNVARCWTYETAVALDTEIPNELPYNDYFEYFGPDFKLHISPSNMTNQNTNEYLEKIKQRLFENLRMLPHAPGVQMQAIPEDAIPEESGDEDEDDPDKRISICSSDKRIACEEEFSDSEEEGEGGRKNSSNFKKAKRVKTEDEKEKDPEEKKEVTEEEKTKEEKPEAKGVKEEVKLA
Sequence of HDAC6 (Q9UBN7 whole entry): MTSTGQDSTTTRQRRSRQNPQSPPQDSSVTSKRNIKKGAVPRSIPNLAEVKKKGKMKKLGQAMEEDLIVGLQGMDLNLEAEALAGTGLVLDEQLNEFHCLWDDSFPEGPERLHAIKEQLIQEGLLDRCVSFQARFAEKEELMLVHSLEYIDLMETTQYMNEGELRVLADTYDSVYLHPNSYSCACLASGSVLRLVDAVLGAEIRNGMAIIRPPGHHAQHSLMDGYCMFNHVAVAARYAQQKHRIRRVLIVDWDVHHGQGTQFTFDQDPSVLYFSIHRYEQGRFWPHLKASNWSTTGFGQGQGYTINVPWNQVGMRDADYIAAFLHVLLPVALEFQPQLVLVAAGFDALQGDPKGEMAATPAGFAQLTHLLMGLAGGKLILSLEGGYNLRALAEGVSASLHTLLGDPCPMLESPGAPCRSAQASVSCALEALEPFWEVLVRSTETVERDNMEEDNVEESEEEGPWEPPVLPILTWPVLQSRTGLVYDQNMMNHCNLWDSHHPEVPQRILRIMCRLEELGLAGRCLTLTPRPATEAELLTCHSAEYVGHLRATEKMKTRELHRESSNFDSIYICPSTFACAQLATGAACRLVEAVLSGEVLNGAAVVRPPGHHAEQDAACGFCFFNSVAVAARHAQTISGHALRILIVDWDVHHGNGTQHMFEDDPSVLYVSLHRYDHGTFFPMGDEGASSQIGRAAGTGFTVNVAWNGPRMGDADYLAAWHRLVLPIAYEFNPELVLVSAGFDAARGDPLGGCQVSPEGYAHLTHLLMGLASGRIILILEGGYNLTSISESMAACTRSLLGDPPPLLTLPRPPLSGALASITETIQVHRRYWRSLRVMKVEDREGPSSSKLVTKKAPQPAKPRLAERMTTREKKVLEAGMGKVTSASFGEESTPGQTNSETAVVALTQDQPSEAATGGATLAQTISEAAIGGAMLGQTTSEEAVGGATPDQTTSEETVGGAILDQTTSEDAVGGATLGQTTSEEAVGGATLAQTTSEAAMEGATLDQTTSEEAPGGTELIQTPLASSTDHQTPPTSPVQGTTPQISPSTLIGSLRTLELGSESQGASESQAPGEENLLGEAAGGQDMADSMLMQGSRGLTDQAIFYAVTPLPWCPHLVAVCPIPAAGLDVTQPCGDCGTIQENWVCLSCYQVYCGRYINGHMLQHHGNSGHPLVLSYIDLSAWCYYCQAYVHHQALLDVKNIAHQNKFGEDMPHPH
Sequence of HDAC7 (Q8WUI4 whole entry): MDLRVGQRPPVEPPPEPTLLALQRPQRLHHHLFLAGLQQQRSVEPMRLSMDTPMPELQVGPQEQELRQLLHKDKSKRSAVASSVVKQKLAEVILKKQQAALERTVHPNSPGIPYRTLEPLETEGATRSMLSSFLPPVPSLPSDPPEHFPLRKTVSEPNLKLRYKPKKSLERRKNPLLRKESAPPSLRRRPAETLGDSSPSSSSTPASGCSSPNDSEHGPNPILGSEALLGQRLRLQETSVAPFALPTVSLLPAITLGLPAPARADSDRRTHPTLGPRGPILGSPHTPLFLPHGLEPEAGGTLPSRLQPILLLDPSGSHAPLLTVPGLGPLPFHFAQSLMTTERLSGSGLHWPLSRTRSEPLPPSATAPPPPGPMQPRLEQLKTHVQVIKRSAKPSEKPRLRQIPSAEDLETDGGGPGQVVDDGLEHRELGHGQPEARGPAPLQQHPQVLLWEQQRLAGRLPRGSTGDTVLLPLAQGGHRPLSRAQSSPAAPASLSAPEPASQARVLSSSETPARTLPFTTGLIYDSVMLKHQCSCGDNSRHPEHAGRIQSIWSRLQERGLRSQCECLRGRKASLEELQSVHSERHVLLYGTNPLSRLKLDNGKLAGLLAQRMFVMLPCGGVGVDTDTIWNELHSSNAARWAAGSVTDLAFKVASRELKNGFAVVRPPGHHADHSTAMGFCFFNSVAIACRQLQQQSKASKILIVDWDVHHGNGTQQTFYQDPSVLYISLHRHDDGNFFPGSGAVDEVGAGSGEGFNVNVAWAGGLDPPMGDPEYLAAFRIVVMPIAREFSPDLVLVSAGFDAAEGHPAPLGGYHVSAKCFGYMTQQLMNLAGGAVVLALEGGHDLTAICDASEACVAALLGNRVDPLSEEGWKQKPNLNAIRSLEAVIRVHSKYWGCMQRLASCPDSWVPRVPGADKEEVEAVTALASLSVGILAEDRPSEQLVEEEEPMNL
Sequence of HDAC4 (P56524 whole entry, species assumed): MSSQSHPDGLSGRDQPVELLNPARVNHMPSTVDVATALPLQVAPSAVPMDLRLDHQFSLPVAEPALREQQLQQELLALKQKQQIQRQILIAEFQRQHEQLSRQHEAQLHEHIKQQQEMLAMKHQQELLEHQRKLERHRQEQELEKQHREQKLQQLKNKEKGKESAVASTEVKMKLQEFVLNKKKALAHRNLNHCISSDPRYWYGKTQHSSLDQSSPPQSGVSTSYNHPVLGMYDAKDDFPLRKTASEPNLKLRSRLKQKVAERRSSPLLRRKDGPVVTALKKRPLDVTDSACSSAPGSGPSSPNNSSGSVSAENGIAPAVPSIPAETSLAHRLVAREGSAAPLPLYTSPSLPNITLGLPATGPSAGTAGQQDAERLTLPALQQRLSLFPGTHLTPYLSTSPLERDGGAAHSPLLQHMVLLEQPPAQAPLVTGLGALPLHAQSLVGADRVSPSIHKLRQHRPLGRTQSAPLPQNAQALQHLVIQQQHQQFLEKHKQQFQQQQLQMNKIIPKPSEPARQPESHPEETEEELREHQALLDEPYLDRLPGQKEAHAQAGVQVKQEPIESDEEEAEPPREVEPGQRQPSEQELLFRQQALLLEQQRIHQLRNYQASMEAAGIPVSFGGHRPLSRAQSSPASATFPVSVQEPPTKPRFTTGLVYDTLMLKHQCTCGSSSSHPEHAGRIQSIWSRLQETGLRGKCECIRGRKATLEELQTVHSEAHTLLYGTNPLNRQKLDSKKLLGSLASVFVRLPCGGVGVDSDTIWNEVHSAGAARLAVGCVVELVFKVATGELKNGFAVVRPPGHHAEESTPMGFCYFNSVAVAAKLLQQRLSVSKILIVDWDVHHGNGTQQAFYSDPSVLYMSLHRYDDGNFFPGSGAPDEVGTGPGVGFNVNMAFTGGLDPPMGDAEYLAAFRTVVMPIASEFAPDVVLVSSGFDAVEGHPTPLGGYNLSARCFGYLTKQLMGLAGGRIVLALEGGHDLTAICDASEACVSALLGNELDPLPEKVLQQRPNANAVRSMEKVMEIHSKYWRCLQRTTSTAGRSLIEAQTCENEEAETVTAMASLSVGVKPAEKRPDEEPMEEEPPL
Sequence of HDAC2 (Q92769 whole entry, species assumed): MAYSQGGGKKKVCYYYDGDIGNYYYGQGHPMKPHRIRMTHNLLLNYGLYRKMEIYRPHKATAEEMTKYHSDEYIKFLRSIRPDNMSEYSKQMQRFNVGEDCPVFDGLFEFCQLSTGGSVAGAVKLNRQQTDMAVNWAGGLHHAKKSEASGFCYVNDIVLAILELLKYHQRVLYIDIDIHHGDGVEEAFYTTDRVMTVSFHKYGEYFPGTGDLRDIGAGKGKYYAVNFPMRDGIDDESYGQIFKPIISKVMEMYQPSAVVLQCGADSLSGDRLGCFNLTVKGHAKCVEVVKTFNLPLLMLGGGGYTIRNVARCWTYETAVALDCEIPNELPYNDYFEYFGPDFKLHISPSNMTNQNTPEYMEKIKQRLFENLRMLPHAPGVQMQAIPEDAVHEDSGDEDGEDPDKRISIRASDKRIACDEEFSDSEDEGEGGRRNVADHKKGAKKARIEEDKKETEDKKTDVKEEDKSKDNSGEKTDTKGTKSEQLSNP
Sequence of HDAC10 (Q969S8 whole entry, species assumed): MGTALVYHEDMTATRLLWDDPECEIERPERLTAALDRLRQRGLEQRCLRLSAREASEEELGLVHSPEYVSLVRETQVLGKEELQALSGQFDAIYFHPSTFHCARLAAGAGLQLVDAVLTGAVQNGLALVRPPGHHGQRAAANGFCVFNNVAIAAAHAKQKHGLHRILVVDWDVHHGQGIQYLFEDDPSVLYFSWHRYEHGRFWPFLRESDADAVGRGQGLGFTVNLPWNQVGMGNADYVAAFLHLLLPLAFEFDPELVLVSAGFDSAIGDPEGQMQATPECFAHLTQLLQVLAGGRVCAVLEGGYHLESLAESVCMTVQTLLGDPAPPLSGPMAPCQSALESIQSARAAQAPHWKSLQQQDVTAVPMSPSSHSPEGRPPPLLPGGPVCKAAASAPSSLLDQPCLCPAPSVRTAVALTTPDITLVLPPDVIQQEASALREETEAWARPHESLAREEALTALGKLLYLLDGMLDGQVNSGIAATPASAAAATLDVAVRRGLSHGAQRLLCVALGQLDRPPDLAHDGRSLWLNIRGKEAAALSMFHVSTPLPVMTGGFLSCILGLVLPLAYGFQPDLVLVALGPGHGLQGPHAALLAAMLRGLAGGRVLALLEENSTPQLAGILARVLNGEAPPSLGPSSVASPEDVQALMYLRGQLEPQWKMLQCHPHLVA

pIC50 [1]: 4.57
pIC50 [2]: < 4.52
pIC50 [3]: < 4.52
pIC50 [4]: 5.08
pIC50 [5]: < 4.52
pIC50 [6]: < 4.52
pIC50 ([7]; read-out: Human HDAC1 IC50): < 4.52
pIC50 ([7]; selectivity profile, read-out: HDAC Enzyme IC50, HDAC 1): < 4.52
pIC50 [8]: < 4.52
Cmax [9]: 2930 ng/mL
half-life [9]: 18.4 h
pIC50 ([10]; read-out: Human HDAC6 IC50): 7.51
pIC50 ([10]; selectivity profile, read-out: HDAC Enzyme IC50, HDAC 6): 7.51
pIC50 [11]: < 4.52
pIC50 [12]: < 4.52
Structure (SMILES): CS(=O)(=O)NCC(Nc1ncc(-c2nnc(C(F)F)o2)cn1)c1ccc(OC(F)(F)F)cc1 (single isomer, unassigned) [122(+), N-(2-((5-(5-(difluoromethyl)-1,3,4-oxadiazol-2-yl)pyrimidin-2-yl)amino)-2-(4-(trifluoromethoxy)phenyl)ethyl)methanesulfonamide]
